Assay results published in ChEMBL document CHEMBL1137847, “3-D-QSAR of N-substituted 4-amino-3,3-dialkyl-2(3H)-furanone GABA receptor modulators using molecular field analysis and receptor surface modelling study” (Bioorg Med Chem Lett, 2004).

Target: GABA-A receptor; anion channel (Homo sapiens) (UniProt P14867+P47870+P18507+P28472+P48169+Q99928+Q9UN88+P34903+O00591+O14764+Q8N1C3+P18505+P78334+P47869+P31644+Q16445)
Assay: Gamma-aminobutyric acid A receptor modulating activity (expressed as biological activity).
Type: protein-complex assay

Row | SMILES | BA
1 | CCCC1(CCC)C(=O)OCC1NC(=O)OCc1ccccc1 (single isomer, unassigned) | 279
2 | O=C1C[C@H](NC(=O)OCc2ccccc2)CO1 | 47
3 | C=CC[C@@H]1C(=O)OC[C@H]1NCc1ccccc1 | -1
4 | CCCC1(CCC)C(=O)OC[C@H]1NS(=O)(=O)c1ccc(OC)cc1 | -22
5 | C=CCC1(CC=C)C(=O)OC[C@H]1NCc1ccccc1 | 115
6 | CCCC1(CCC)C(=O)OC[C@H]1NS(=O)(=O)c1ccc(C(F)(F)F)cc1 | -44
7 | CCCC1(CCC)C(=O)OC[C@H]1NC(=O)Oc1ccccc1 | 330
8 | CCCC1(CCC)C(=O)OC[C@H]1NC(=O)c1ccccc1 | 420
9 | CCCC1(CCC)C(=O)OC[C@H]1NS(=O)(=O)c1ccc(Cl)cc1 | 23
10 | CCCC1(CCC)C(=O)OC[C@H]1NS(=O)(=O)c1cccs1 | -16
11 | CCCC1(CCC)C(=O)OC[C@H]1NC(=O)OCc1ccccc1 | 104
12 | C=CCOC(=O)N[C@@H]1COC(=O)C1(CCC)CCC | 765
13 | CCCC1(CCC)C(=O)OC[C@H]1NC(=O)OC(C)(C)C | 46
14 | CCCC1(CCC)C(=O)OC[C@H]1NS(=O)(=O)c1ccc2ccccc2c1 | 4
15 | O=C1C[C@H](NCc2ccccc2)CO1 | 0
16 | CCCC1(CCC)C(=O)OC[C@H]1NC(=O)OCC | 426
17 | C=CC[C@H]1C(=O)OC[C@H]1NCc1ccccc1 | 73
18 | CCCC1(CCC)C(=O)OC[C@H]1NS(=O)(=O)N(C)C | -1
